Residues, ends and D or L forms follow the SMILES beside them. *: point of attachment. Cbz = O=C(OCc1ccccc1)*; CH2F = FC*

In data set [1] the test system is MAPKi-R NRAS-mutant melanoma cells. The class given is cell-based. Particulars: for effect on FNB/DHA-induced cell death: M93-047, GSH 2 mM, zVAD 20 μM, Kira6 0.2 μM pre-treatment; for effect on cell death induced by S6K2 depletion (S6K2 shRNA): M93-047 cells transduced with S6K2 shRNA; for effect on S6K2i (CD02)-induced cell death: MAPKi-R cells treated with CD02. As for the experimental part:
Floating and attached cells were harvested, washed and stained with PSVue 643/PI or Annexin V-FITC/PI. Annexin V staining was performed as described previously (45), with 15 min Annexin V incubation. For PSVue/PI staining, cells were incubated in 3 μM PSVue 643/TES for 10 min at RT, washed in TES buffer and resuspended in PI (5 μg/mL)/TES for 15 min at RT. Cell death (Annexin V^+/PSVue^+ or PI^+) was quantified by FACS (LSRII 18 color analyzer, BD Biosciences) and analyzed using FlowJo software v.10.7.2.

The subject of data set [2] is pS6 (S240/244) in MAPKi-S cells. Kind of data set: Phosphorylation of S6K/S6 in MAPKi-S cells (immunoblotting, RPPA, flow cytometry). The class given is cell-based, human. As for the experimental part: (§1) Cells were lysed with RIPA buffer (50 mM Tris-HCl, pH 7.4, 150 mM NaCl, 1% NP-40, 0.5% sodium deoxycholate, 1 mM EDTA, 2.5 mM sodium pyrophosphate, 0.05% or 0.1% SDS) supplemented with sodium vanadate (0.2 mM) and protease inhibitor cocktail (Sigma-Aldrich #11697498001). Immunoblotting was performed as previously described (Echevarria-Vargas et al., 2018). Immunoblots were imaged with an Odyssey Infrared Imaging System (LI-COR Biosciences).
(§2) Flow cytometry. Cells were fixed in 90% ice cold EtOH/PBS and stored at −20° C. Cells were washed twice with PBS followed by 1 h incubation at RT with incubation buffer (1% BSA/PBS) containing primary antibodies (1:500 pS6 S240/244 Cell Signaling Technology #5364; 1:1000 HA Sigma-Aldrich #H9658). Samples were washed once (1×PBS), incubated for 30 min at RT with incubation buffer containing secondary antibodies diluted to 1:500 (goat anti-mouse Alexa Fluor 488 ThermoFisher #A11029; goat anti-rabbit Alexa Fluor 647 #A21244), washed (1×PBS) and resuspended in incubation buffer for analysis by flow cytometry (BD LSRII 14-color flow cytometer analyser; Alexa Fluor 488 and APC filter sets). Data analyses were performed using FlowJo software to calculate pS6 positivity. For 4-HNE staining, cells were fixed with 4% paraformaldehyde for 15 min, washed with PBS and stored at 4° C. […]

Data set [3] concerns pS6 (S240/244) in MAPKi-R cells. The data set can be described thus: Phosphorylation of S6K/S6 in MAPKi-R cells (immunoblotting, RPPA, flow cytometry). The class given is cell-based, human. As to the method: as §1, §2
(In general: A western blot detects proteins with antibodies after separation by electrophoresis.)

The subject of data set [4] is spliced XBP-1 and PPARα in M93-047 cells. The data set can be described thus: Spliced XBP-1 and PPARα levels by qRT-PCR / Western blotting. Format: cell-based, human. As for the experimental part: as §1
Cell pellets were homogenized using QIAshredder (QIagen #79656) and RNA extracted with PureLink RNA mini kit (Thermo Fisher Scientific, #12183018A). DNA was removed by on-column PureLink DNase treatment (Thermo Fisher Scientific, #12185010). First-strand cDNA was synthesized using Maxima cDNA kit (Thermo Scientific™ #K1642). Real time qPCR was performed using SYBR green PCR Master Mix (Applied Biosystems #4385612). Tumor samples for qRT-PCR were preserved in RNAlater solution (Invitrogen #AM7020).

The subject of data set [5] is M93047 and WM3623 cell lines. Kind of data set: Preliminary in vitro studies against MAPKi-R cell lines. Format: cell-based, human. Particulars: at lower concentrations.

With `N[C@@H](CCC(=O)N[C@@H](CS)C(=O)NCC(=O)O)C(=O)O` [GSH, glutathione], in data set [1], the “effect on FNB/DHA-induced cell death” value is given as “attenuated FNB/DHA-induced cell death”, the “effect on cell death induced by S6K2 depletion (S6K2 shRNA)” value (“effect on cell death induced” below) is recorded as “also attenuated cell death” and the “effect on S6K2i (CD02)-induced cell death” value (from here on “effect on S6K2i”) was “attenuate S6K2i-induced cell death”.
Take `COc1ncc(-c2ccc3nccc(-c4ccnnc4)c3c2)cc1NS(=O)(=O)c1ccc(F)cc1F` [GSK458, GSK2126458]: the “phosphorylation of S6K / S6” value was “decreased phosphorylation of S6” in data set [2] and “effectively suppressed pS6” in data set [3].
As for `CC(C)(C)c1nc(-c2ccc(NC(=O)Nc3cccc(C(F)(F)F)c3)c3ccccc23)c2c(N)nccn12` [Kira6], in data set [1], the “effect on FNB/DHA-induced cell death” value was “attenuated FNB/DHA-induced cell death”, the “effect on cell death induced” value is listed as “partially attenuated cell death” and the “effect on S6K2i” value was “attenuate S6K2i-induced cell death”. The “upregulation of XBP-1 splicing and PPARα expression caused by S6K2 knockdown” value in data set [4] (M93-047, S6K2 shRNA) is “suppressed”. Moreover, the “activation of XBP-1 by FNB/DHA” value in data set [4] (cotreatment with 0.2 μM Kira6) is recorded as “suppressed the activation of XBP-1”.
On to `Cn1cc(-c2ccc(F)c(C(F)(F)F)c2)nc1C1CCN(c2ncnc3[nH]ncc23)CC1` [LY2584702], for which the “cytotoxicity with ectopically expressed activated S6K1” value in data set [1] (M93-047 with S6K1^T389E, 1, 5, 10 μM, 48 hours) was “enhanced LY4702 cytotoxicity”.
Consider `O=C(CCl)Nc1ccc(-c2cc(O)cc3sc(=O)oc23)cc1` [MM-113], for which the “potency compared with RT12” value in data set [5] was “better potency at lower concentrations”.
With `CC(=O)N[C@@H](CS)C(=O)O` [NAC], in data set [1], the “effect on cell death induced” value was “protects M93047 cells from S6K2sh induced cell death” and the “effect on S6K2i” value is listed as “rescues S6K2i-induced cell death”.
As for `O=C(Nc1ccc2[nH]nc(-c3ccncc3)c2c1)[C@@H]1CCN(CC(=O)N2CCN(c3ccc(-c4ncccn4)cc3)CC2)C1` [SCH984, SCH772984], the results for the “phosphorylation of S6K / S6” value in data set [2] and in data set [3] were “decreased phosphorylation of S6” and “no effect on phosphorylation of S6”, respectively.
Turning to `CCOC(=O)c1ccc(NC2CCCCC2)c(N)c1` [ferrostatin-1], in data set [1], the “effect on cell death induced” value is listed as “did not attenuate cell death”.
For `COC(=O)C[C@H](NC(=O)[C@H](C)NC(=O)[C@@H](NC(=O)OCc1ccccc1)C(C)C)C(=O)CF` [zVAD, zVAD(OMe)-FMK] (Cbz-Val-Ala-Asp(OMe)-CH2F), in data set [1], the “effect on FNB/DHA-induced cell death” value was “attenuated FNB/DHA-induced cell death”, the “effect on cell death induced” value is “also attenuated cell death” and the “effect on S6K2i” value is “attenuate S6K2i-induced cell death”.

For the origin of these results see patent US20260263417A1, “STRUCTURE-BASED OPTIMIZATION OF S6K2 INHIBITOR CD02 TO TARGET MELANOMA” (THE WISTAR INSTITUTE OF ANATOMY AND BIOLOGY, priority 2023, published 2026).
